System: yeast genes (expressed mRNA)
Assay: DNA chip measurement of expressed mRNA of yeast genes after culture with a toxic chemical substance
Assay type: cell-based, Saccharomyces cerevisiae S288C
Method in brief: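 S. cerevisiae S288C grown at 25 °C in YPD, exposed in log phase for 2 h to a toxicant at growth-inhibiting, non-lethal concentration. Cy3/Cy5-labelled cDNA from poly(A) mRNA hybridized to whole-genome chip at 65 °C >12 h. Ratio to untreated control, ≥2 significant.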

Structure (SMILES): C[S+](C)[O-] [(15), Dimethyl sulfoxide]
- The level of expressed mRNA in the presence of chemical substance/The level of expressed mRNA in the absence of chemical substance, yeast gene YDL067C (gene YDL067C (mitochondria-located protein gene), yeast cultured two hours with chemical substance, DNA chip fluorescence ratio to control): 0.7
- The level of expressed mRNA in the presence of chemical substance/The level of expressed mRNA in the absence of chemical substance, yeast gene YDR079W (gene YDR079W (mitochondria-located protein gene), yeast cultured two hours with chemical substance, DNA chip fluorescence ratio to control): 0.6
- The level of expressed mRNA in the presence of chemical substance/The level of expressed mRNA in the absence of chemical substance, yeast gene YGR062C (gene YGR062C (mitochondria-located protein gene), yeast cultured two hours with chemical substance, DNA chip fluorescence ratio to control): 0.5
- The level of expressed mRNA in the presence of chemical substance/The level of expressed mRNA in the absence of chemical substance, yeast gene YJL096W (gene YJL096W (mitochondria-located protein gene), yeast cultured two hours with chemical substance, DNA chip fluorescence ratio to control): 1.0
- The level of expressed mRNA in the presence of chemical substance/The level of expressed mRNA in the absence of chemical substance, yeast gene YJL180C (gene YJL180C (mitochondria-located protein gene), yeast cultured two hours with chemical substance, DNA chip fluorescence ratio to control): 0.6
- level of expressed mRNA in the presence of chemical substance / level in the absence of chemical substance (yeast gene YAL018C, cultured two hours with the chemical substance): 6.9
- level of expressed mRNA in the presence of chemical substance / level in the absence of chemical substance (yeast gene YAR047C, cultured two hours with the chemical substance): 0.5
- level of expressed mRNA in the presence of chemical substance / level in the absence of chemical substance (yeast gene YAR064W, cultured two hours with the chemical substance): 1.9
- level of expressed mRNA in the presence of chemical substance / level in the absence of chemical substance (yeast gene YBL044W, cultured two hours with the chemical substance): 0.7
- level of expressed mRNA in the presence of chemical substance / level in the absence of chemical substance (yeast gene YBR012C, cultured two hours with the chemical substance): 1.1
- The level of expressed mRNA in the presence of chemical substance/The level of expressed mRNA in the absence of chemical substance (yeast gene YBR047W, cultured two hours with substance): 0.8
- level of expressed mRNA in the presence of chemical substance / level in the absence of chemical substance (yeast gene YBR066C, cultured two hours with the chemical substance): 0.4
- The level of expressed mRNA in the presence of chemical substance/The level of expressed mRNA in the absence of chemical substance (yeast gene YBR100W, cultured two hours with the chemical substance): 1.3
- level of expressed mRNA in the presence of chemical substance / level in the absence of chemical substance (yeast gene YBR124W, cultured two hours with the chemical substance): 1.0
- level of expressed mRNA in the presence of chemical substance / level in the absence of chemical substance (yeast gene YBR162C, cultured two hours with the chemical substance): 1.9
- The level of expressed mRNA in the presence of chemical substance/The level of expressed mRNA in the absence of chemical substance (yeast gene YBR273C, cultured two hours with substance): 0.8
- level of expressed mRNA in the presence of chemical substance / level in the absence of chemical substance (yeast gene YBR287W, cultured two hours with the chemical substance): 1.3
- The level of expressed mRNA in the presence of chemical substance/The level of expressed mRNA in the absence of chemical substance (yeast gene YCL009C): 6.5
- The level of expressed mRNA in the presence of chemical substance/The level of expressed mRNA in the absence of chemical substance (yeast gene YCL040W, cultured for two hours with substance): 3.4
- The level of expressed mRNA in the presence of chemical substance/The level of expressed mRNA in the absence of chemical substance (yeast gene YCL049C, cultured two hours with substance): 1.4
- level of expressed mRNA in the presence of chemical substance / level in the absence of chemical substance (yeast gene YCL056C, cultured two hours with the chemical substance): 1.7
- level of expressed mRNA in the presence of chemical substance / level in the absence of chemical substance (yeast gene YCR007C, cultured two hours with the chemical substance): 0.8
- The level of expressed mRNA in the presence of chemical substance/The level of expressed mRNA in the absence of chemical substance (yeast gene YCR030C, cultured two hours with the chemical substance): 1.3
- The level of expressed mRNA in the presence of chemical substance/The level of expressed mRNA in the absence of chemical substance (yeast gene YCR082W, cultured two hours with substance): 1.6
- The level of expressed mRNA in the presence of chemical substance/The level of expressed mRNA in the absence of chemical substance (yeast gene YCR107W, cultured for two hours with substance): 4.8
- level of expressed mRNA in the presence of chemical substance / level in the absence of chemical substance (yeast gene YDL046W, cultured two hours with the chemical substance): 2.3
- The level of expressed mRNA in the presence of chemical substance/The level of expressed mRNA in the absence of chemical substance (yeast gene YDL110C, cultured two hours with substance): 1.3
- The level of expressed mRNA in the presence of chemical substance/The level of expressed mRNA in the absence of chemical substance (yeast gene YDL222C, cultured two hours with substance): 7.1
- The level of expressed mRNA in the presence of chemical substance/The level of expressed mRNA in the absence of chemical substance (yeast gene YDR031W, cultured two hours with substance): 0.8
- The level of expressed mRNA in the presence of chemical substance/The level of expressed mRNA in the absence of chemical substance (yeast gene YDR032C, cultured two hours with substance): 1.3
- level of expressed mRNA in the presence of chemical substance / level in the absence of chemical substance (yeast gene YDR090C, cultured two hours with the chemical substance): 1.1
- level of expressed mRNA in the presence of chemical substance / level in the absence of chemical substance (yeast gene YDR128W, cultured two hours with the chemical substance): 1.4
- level of expressed mRNA in the presence of chemical substance / level in the absence of chemical substance (yeast gene YDR133C, cultured two hours with the chemical substance): 0.6
- level of expressed mRNA in the presence of chemical substance / level in the absence of chemical substance (yeast gene YDR250C, cultured two hours with the chemical substance): 0.7
- level of expressed mRNA in the presence of chemical substance / level in the absence of chemical substance (yeast gene YDR278C, cultured two hours with the chemical substance): 0.7
- level of expressed mRNA in the presence of chemical substance / level in the absence of chemical substance (yeast gene YDR281C, cultured two hours with the chemical substance): 0.3
- level of expressed mRNA in the presence of chemical substance / level in the absence of chemical substance (yeast gene YDR366C, cultured two hours with the chemical substance): 1.4
- The level of expressed mRNA in the presence of chemical substance/The level of expressed mRNA in the absence of chemical substance (yeast gene YDR434W, cultured two hours with substance): 1.3
- The level of expressed mRNA in the presence of chemical substance/The level of expressed mRNA in the absence of chemical substance (yeast gene YDR476C, cultured two hours with substance): 2.2
- The level of expressed mRNA in the presence of chemical substance/The level of expressed mRNA in the absence of chemical substance (yeast gene YDR497C (transport facilitation protein gene)): 10.1
- The level of expressed mRNA in the presence of chemical substance/The level of expressed mRNA in the absence of chemical substance (yeast gene YDR511W, cultured two hours with substance): 0.8
- The level of expressed mRNA in the presence of chemical substance/The level of expressed mRNA in the absence of chemical substance (yeast gene YDR520C, cultured two hours with substance): 1.3
- The level of expressed mRNA in the presence of chemical substance/The level of expressed mRNA in the absence of chemical substance (yeast gene YER014W, mitochondria-located protein gene, cultured two hours with substance): 2.3
- The level of expressed mRNA in the presence of chemical substance/The level of expressed mRNA in the absence of chemical substance (yeast gene YER038C, cultured two hours with substance): 0.8
- The level of expressed mRNA in the presence of chemical substance/The level of expressed mRNA in the absence of chemical substance (yeast gene YER106W, cultured two hours with substance): 6.8
- The level of expressed mRNA in the presence of chemical substance/The level of expressed mRNA in the absence of chemical substance (yeast gene YER175C, cultured two hours with substance): 1.3
- level of expressed mRNA in the presence of chemical substance / level in the absence of chemical substance (yeast gene YFR026C, cultured two hours with the chemical substance): 2.3
- The level of expressed mRNA in the presence of chemical substance/The level of expressed mRNA in the absence of chemical substance (yeast gene YGL037C, cultured two hours with substance): 0.8
- level of expressed mRNA in the presence of chemical substance / level in the absence of chemical substance (yeast gene YGL088W, cultured two hours with the chemical substance): 0.4
- The level of expressed mRNA in the presence of chemical substance/The level of expressed mRNA in the absence of chemical substance (yeast gene YGL204C, cultured two hours with substance): 0.8
- The level of expressed mRNA in the presence of chemical substance/The level of expressed mRNA in the absence of chemical substance (yeast gene YGL259W, cultured two hours with substance): 1.3
- The level of expressed mRNA in the presence of chemical substance/The level of expressed mRNA in the absence of chemical substance (yeast gene YGR010W, cultured two hours with substance): 1.3
- level of expressed mRNA in the presence of chemical substance / level in the absence of chemical substance (yeast gene YGR038W, cultured two hours with the chemical substance): 1.1
- level of expressed mRNA in the presence of chemical substance / level in the absence of chemical substance (yeast gene YGR139W, cultured two hours with the chemical substance): 2.3
- The level of expressed mRNA in the presence of chemical substance/The level of expressed mRNA in the absence of chemical substance (yeast gene YGR141W, cultured two hours with the substance): 2.6
- The level of expressed mRNA in the presence of chemical substance/The level of expressed mRNA in the absence of chemical substance (yeast gene YGR142W, cultured two hours with substance): 1.3
- The level of expressed mRNA in the presence of chemical substance/The level of expressed mRNA in the absence of chemical substance (yeast gene YGR153W, cultured two hours with substance): 1.3
- level of expressed mRNA in the presence of chemical substance / level in the absence of chemical substance (yeast gene YGR243W, cultured two hours with the chemical substance): 0.8
- level of expressed mRNA in the presence of chemical substance / level in the absence of chemical substance (yeast gene YGR293C, cultured two hours with the chemical substance): 0.7
- level of expressed mRNA in the presence of chemical substance / level in the absence of chemical substance (yeast gene YHL006C, cultured two hours with the chemical substance): 0.6
- level of expressed mRNA in the presence of chemical substance / level in the absence of chemical substance (yeast gene YHR095W, cultured two hours with the chemical substance): 0.8
- level of expressed mRNA in the presence of chemical substance / level in the absence of chemical substance (yeast gene YHR105W, cultured two hours with the chemical substance): 0.9
- The level of expressed mRNA in the presence of chemical substance/The level of expressed mRNA in the absence of chemical substance (yeast gene YHR138C, cultured two hours with substance): 2.2
- The level of expressed mRNA in the presence of chemical substance/The level of expressed mRNA in the absence of chemical substance (yeast gene YHR142W): 4.8
- level of expressed mRNA in the presence of chemical substance / level in the absence of chemical substance (yeast gene YHR181W, cultured two hours with the chemical substance): 1.4
- The level of expressed mRNA in the presence of chemical substance/The level of expressed mRNA in the absence of chemical substance (yeast gene YIL041W, cultured two hours with substance): 1.3
- The level of expressed mRNA in the presence of chemical substance/The level of expressed mRNA in the absence of chemical substance (yeast gene YIL060W, cultured two hours with substance): 1.3
- The level of expressed mRNA in the presence of chemical substance/The level of expressed mRNA in the absence of chemical substance (yeast gene YIL117C, cultured two hours with substance): 7.5
- level of expressed mRNA in the presence of chemical substance / level in the absence of chemical substance (yeast gene YIL127C, cultured two hours with the chemical substance): 0.7
- The level of expressed mRNA in the presence of chemical substance/The level of expressed mRNA in the absence of chemical substance (yeast gene YIL143C, DNA repair protein genes, cultured two hours with substance): 1.3
- The level of expressed mRNA in the presence of chemical substance/The level of expressed mRNA in the absence of chemical substance (yeast gene YIR041W, cultured two hours with the chemical substance): 1.3
- level of expressed mRNA in the presence of chemical substance / level in the absence of chemical substance (yeast gene YJL017W, cultured two hours with the chemical substance): 1.1
- The level of expressed mRNA in the presence of chemical substance/The level of expressed mRNA in the absence of chemical substance (yeast gene YJL034W (transport facilitation protein gene)): 7.9
- level of expressed mRNA in the presence of chemical substance / level in the absence of chemical substance (yeast gene YJL037W, cultured two hours with the chemical substance): 1.6
- The level of expressed mRNA in the presence of chemical substance/The level of expressed mRNA in the absence of chemical substance (yeast gene YJL066C, cultured two hours with substance): 1.3
- level of expressed mRNA in the presence of chemical substance / level in the absence of chemical substance (yeast gene YJL097W, cultured two hours with the chemical substance): 1.1
- The level of expressed mRNA in the presence of chemical substance/The level of expressed mRNA in the absence of chemical substance (yeast gene YJL108C, cultured two hours with substance): 4.0
- The level of expressed mRNA in the presence of chemical substance/The level of expressed mRNA in the absence of chemical substance (yeast gene YJL149W, cultured two hours with substance): 9.0
